Values joined by “and” are separate entries in the source; they are usually repeats but may differ in a detail not shown here. Equal entries are not always repeated. Where two headings read alike, the source gives them in different places.
Legend:
Pah^enu2 mice = experiment: Plasma Phe in Pah^enu2 mice on defined amino acid diets (0.75%, 0.45%, 0.225% Phe); type: in vivo, mouse; design: plasma Phe: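 plasma Phe concentration in µM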; conditions: for mean plasma Phe lower than vehicle / plasma Phe, mean ± SD: 200 mg/kg, 3 hours after dose; for plasma Phe: Fig 3e, Pah^enu2 mice on defined diet, individual animals
Protocol: To modulate baseline plasma Phe levels, 8–13-week-old male Pah^enu2 mice were maintained on isocaloric amino acid–defined diets with either 7.5 g/kg (0.75%, Teklad T.2018.15), 4.5 g/kg (0.45%, Teklad custom formulation), or 2.25 g/kg (0.225%, Teklad custom formulation) L-Phe for 2 weeks before a single dose administration of 200 mg/kg JN-170 or vehicle. Animals had unrestricted access to food and water throughout the study. Serial plasma samples were taken predose as well as 1, 3, 8, 24 and 48 hours after the dose. For all studies, mice were dosed at 7:00 a.m. ± 30 minutes to synchronize with circadian rhythm.
Plasma sample analyses were carried out by liquid chromatography tandem mass spectrometry (LC-MS/MS). Plasma samples were mixed 1:1 with carbamazepine or ^13C6-Phe as internal standards for JN-170 and Phe, respectively. Plasma proteins were precipitated by adding 4 volumes of acetonitrile (ACN) and 0.1% formic acid (FA) followed by centrifugation for 5 minutes at 2,100g. Supernatants were diluted 1:1 in ACN and 0.1% FA. For JN-170, a Waters HSS T3 reversed phase column was used for separation using a binary gradient of 0.1% FA in water (mobile phase A) to 0.1% in ACN (mobile phase B). At a flow rate of 0.8 mL/min, the mobile phase gradient increased from an initial 25% phase B to 95% phase B over 30 seconds. After, 1.5 minutes, the gradient was returned to 25% mobile phase B. For detection of Phe, an Acquity UPLC ethylene bridged hybrid (BEH) amide column was used, with a binary gradient of 10 mM ammonium acetate in 95:5:1 H2O:ACN:FA (mobile phase A) to 10 mM ammonium acetate in 95:5:1 ACN:H2O:FA (mobile phase B). At a flow rate of 0.5 mL/min, the mobile phase gradient changed from an initial 100% phase B to 50% phase B over 2.1 minutes. It was returned to 100% phase B after 4 minutes. Analytes were detected using a Sciex API-5500 in multiple reaction monitoring mode using an electrospray ionization source in the positive ion mode with the following ion transitions: m/z 435.2/84.1 (JN-170), 237.1/194.1 (carbamazepine), 166.1/120.1 (Phe), 172.2/126.2 for (^13C6-Phe). Analyte concentrations were calculated with a 1/×^2 linear regression over a concentration range of 1 or 2 to 5,000 ng/mL for JN-170 and 0.05–100 ng/mL for Phe.

[1] = JNT-517 plasma pharmacokinetics in healthy volunteers; type: in vivo, human; conditions: for half-life / Tmax: human, plasma, oral; for half-life: read-out: Mean T1/2 (converted); for Tmax: min, read-out: Median Tmax
Protocol: The plasma pharmacokinetic profile of JNT-517 was measured using a qualified high-performance LC-MS assay. Blood samples for PK analysis were taken before dosing, and 0.5, 1, 1.5, 2, 2.5, 3, 4, 6, 8, 10, 12, 24, 36, […], and 72 hours after dosing in the SAD study. For the MAD study, blood samples for PK analysis were taken before dosing, and 0.5, 1, 1.5, 2, 2.5, 3, 4, 6, 8, 10, 12, and 24 hours after dosing in the case of once-daily dosing or 0.5, 1, 1.5, 2, 2.5, 3, 4, 6, 8.5, 9 9.5, 10, 10.5, 11, 12, 14, 16, and 24 hours after dosing in the case of twice daily dosing. In addition, predose samples were collected throughout days 3–13. The resulting concentration-time data was evaluated using standard noncompartmental analysis methods, and PK parameters were calculated (Cmax, Tmax, T1/2, AUC0-inf, CL/F, Vd/F).
IC50 values for transport inhibition in cells overexpressing SLC6A19 and TMEM27 were calculated using a 4-parameter logistic regression in Collaborative Drug Discovery (CDD). Reported IC50 values are geometric means of 4–6 independent experiments. For postmortem intestinal transport assays, single outliers of quadruplicate replicates were excluded from the calculation if a signal value’s distance to the mean exceeded 35% of the signal average. The IC50 values of individual experiments were calculated with a 3- or 4-parameter logistic regression using GraphPad Prism 9. The reported IC50 value represents the geometric mean of n = 5 experiments from 3 individual donors. Statistical comparison of urinary Phe excretion in Pah^enu2 mice treated with vehicle or JN-170 was conducted using 1-way analysis of variance (ANOVA) with Tukey’s post hoc comparison. Statistical analysis of baseline-adjusted plasma Phe in mice treated with vehicle or JN-170 was determined by 2-way ANOVA with Dunnett’s post hoc comparison. All statistical analyses were performed using GraphPad Prism 9. For clinical studies, group sizes were not determined based on statistical power calculations. Statistical significance of pharmacodynamic results was not assessed. Values are reported as mean (urinary Phe excretion, T1/2, Cl/F), geometric mean (Cmax/D, AUC0-inf/D), or median (Tmax).

With `N#Cc1ccc(-c2noc([C@]3(C(F)(F)F)CCN(C(=O)NCCC4(N)CC4)C3)n2)cc1` [JN-170] as the compound, how does the “mean plasma Phe lower than vehicle” value (Pah^enu2 mice; 0.225% Phe diet) read?
The value was 47%.

And the “plasma Phe, mean ± SD” value (Pah^enu2 mice; 0.225% Phe diet)?
Its value is 309 ± 108 µM.

What about the “mean plasma Phe lower than vehicle” value (Pah^enu2 mice; 0.45% Phe diet) of the same compound?
The value was 61%.

What about the “plasma Phe, mean ± SD” value (Pah^enu2 mice; 0.45% Phe diet) of the same compound?
Its value is 416 ± 117 µM.

And the “mean plasma Phe lower than vehicle” value (Pah^enu2 mice; 0.75% Phe diet)?
The value was 59%.

And the “plasma Phe, mean ± SD” value (Pah^enu2 mice; 0.75% Phe diet)?
Its value is 621 ± 141 µM.

And the “plasma Phe” value (Pah^enu2 mice; time 0 h)?
The value was 2027 and 2042 and 2474 and 2301 and 2768 and 2728 and 2723 and 1767 and 1191 and 962 and 924 and 848 and 1013 and 971 and 1061 and 1569 and 1364 and 1314.

What about the “plasma Phe” value (Pah^enu2 mice; time 1 h) of the same compound?
The value was 884 and 990 and 803 and 886 and 865 and 914 and 675 and 1252 and 589 and 1292 and 1010 and 927 and 813 and 907 and 727 and 787 and 898 and 1296 and 942 and 978.

And the “plasma Phe” value (Pah^enu2 mice; time 3 h)?
Its value is 973 and 455 and 892 and 697 and 736 and 559 and 671 and 509 and 763 and 495 and 635 and 669 and 535 and 654 and 529 and 586 and 485 and 516 and 441 and 769 and 511 and 574.

And the “plasma Phe” value (Pah^enu2 mice; time 8 h)?
The value was 938 and 505 and 720 and 502 and 600 and 578 and 665 and 577 and 945 and 657 and 745 and 672 and 637 and 621 and 611 and 518 and 376 and 392 and 476 (2×) and 629.

And the “plasma Phe” value (Pah^enu2 mice; time 24 h)?
Its value is 1767 and 1553 and 1370 and 1402 and 1592 and 597 and 1045 and 1827 and 1448 and 1043 and 988 and 1535 and 1388 and 1336 and 1203 and 1339 and 1578 and 871 and 1063.

For `NC(=O)N1CCC[C@@H](N(C(=O)NCc2ccc(OC(F)(F)F)cc2F)C2CC2)C1` [JNT-517], which “plasma exposure exceeding the in vitro IC75” value ([1]; MAD 150 mg QD) is on record?
Its value is “approximately 24 hours”.

What about the “accumulation between days 1 and 14” value ([1]; MAD cohorts, dose levels tested) of the same compound?
The value was “no accumulation was observed”.

And the “Geomean Cmax/D” value ([1]; SAD 10 mg, %CV 23.6)?
The value was 45.9 ng/mL/mg.

What about the “Geomean AUC0-inf/D” value ([1]; SAD 10 mg, %CV 66.0) of the same compound?
The value was 340 ng·h/mL/mg.

And the “Mean Cl/F” value ([1]; SAD 10 mg, SD 1.75)?
Its value is 3.36 L/h.

And the “Geomean Cmax/D” value ([1]; SAD 25 mg, %CV 25.5)?
Its value is 48.5 ng/mL/mg.

And the “Geomean AUC0-inf/D” value ([1]; SAD 25 mg, %CV 59.0)?
The value was 402 ng·h/mL/mg.

And the “Mean Cl/F” value ([1]; SAD 25 mg, SD 1.27)?
Its value is 2.78 L/h.

What about the “Geomean Cmax/D” value ([1]; SAD 50 mg, %CV 14.8) of the same compound?
Its value is 44.6 ng/mL/mg.

What about the “Geomean AUC0-inf/D” value ([1]; SAD 50 mg, %CV 34.5) of the same compound?
The value was 348 ng·h/mL/mg.

What about the “Mean Cl/F” value ([1]; SAD 50 mg, SD 0.873) of the same compound?
The value was 3.00 L/h.

And the “Geomean Cmax/D” value ([1]; SAD 100 mg, %CV 13.0)?
The value was 35.0 ng/mL/mg.

What about the “Geomean AUC0-inf/D” value ([1]; SAD 100 mg, %CV 42.4) of the same compound?
Its value is 239 ng·h/mL/mg.

What about the “Mean Cl/F” value ([1]; SAD 100 mg, SD 2.11) of the same compound?
The value was 4.52 L/h.

What about the “Geomean Cmax/D” value ([1]; SAD 170 mg, %CV 24.9) of the same compound?
Its value is 32.9 ng/mL/mg.

And the “Geomean AUC0-inf/D” value ([1]; SAD 170 mg, %CV 33.6)?
The value was 269 ng·h/mL/mg.

And the “Mean Cl/F” value ([1]; SAD 170 mg, SD 1.15)?
Its value is 3.87 L/h.

What about the half-life ([1]; SAD 10 mg, %CV 50.2) of the same compound?
Its half-life is 6.37 h.

What about the Tmax ([1]; SAD 10 mg, max 0.5, 1.07) of the same compound?
Its Tmax is 0.75 h.

And the half-life ([1]; SAD 25 mg, %CV 50.7)?
Its half-life is 7.78 h.

And the Tmax ([1]; SAD 25 mg, max 0.5, 2.0)?
The Tmax was 1 h.

What about the half-life ([1]; SAD 50 mg, %CV 35.4) of the same compound?
The half-life was 6.17 h.

And the Tmax ([1]; SAD 50 mg, max 0.5, 2.0)?
The Tmax was 0.75 h.

What about the half-life ([1]; SAD 100 mg, %CV 31.9) of the same compound?
Its half-life is 5.89 h.

What about the Tmax ([1]; SAD 100 mg, max 0.5, 1.5) of the same compound?
Its Tmax is 1 h.

What about the half-life ([1]; SAD 170 mg, %CV 24.7) of the same compound?
Its half-life is 6.04 h.

And the Tmax ([1]; SAD 170 mg, max 0.5, 2.0)?
Its Tmax is 0.75 h.

And the “exposure above the in vitro IC75” value ([1]; single 50 mg dose)?
Its value is over 12 h.

What about the “target coverage exceeding the IC75” value ([1]; single 170 mg dose) of the same compound?
The value was “approximately 24 hours”.

Reference: publication PMC11601558, “SLC6A19 inhibition facilitates urinary neutral amino acid excretion and lowers plasma phenylalanine” (JCI Insight, 2024)
